These results are taken from patent US20250163104A1, “MACROCYCLIC IMMUNOMODULATORS” (priority 2021, published 2025).

The target in the assay is T1, human PD-1 / PD-L1-Ig binding on Jurkat cell line over-expressing human PD-1 (Jurkat-PD-1) (Homo sapiens, UniProt Q15116).
T1 construct: expressed in transfected cells; host or cells: Jurkat
Kind of assay: Jurkat-PD-1 Cell Binding High-Content Screening Assay (CBA). In kind it is cell-based. The settings on record: PE-labeled PD-L1-Ig 20 nM final. The procedure: Example 3. Jurkat-PD-1 Cell Binding High-Content Screening Assay (CBA)
Jurkat-PD-1 Cell Binding High-Content Screening Assay (CBA). Phycoerythrin (PE) was covalently linked to the Ig epitope tag of human PD-L1-Ig and fluorescently-labeled PD-L1-Ig was used for binding studies with a Jurkat cell line over-expressing human PD-1 (Jurkat-PD-1). Briefly, 8×10^3 Jurkat-hPD-1 cells were seeded into 384 well plates in 20 μl of DMEM supplemented with 10% fetal calf serum. 100 nL of compound was added to cells followed by incubation at 37° C. for 2 h. Then, 5 μl of PE-labeled PD-L1-Ig (20 nM final), diluted in DMEM supplemented with 10% fetal calf serum. After 1 hour incubation, cells were fixed with 4% paraformaldehyde in dPBS containing 10 μg/ml Hoechst 33342 and then washed 3x in 100 μl dPBS. Data was collected and processed using a Cell Insight NXT High Content Imager and associated software.

Setting [1] is: Jurkat-PD-1 cells, read-out: Jurkat HPD1_PDL1 IC50.

Like-named read-outs stand apart in the source and are kept apart here. Where a SMILES comes first, the peptide text is derived from it. Bridges are numbered along the chain shown (N, C = ends). [ ]: non-standard residue; d: D form. The star is where a group is joined. ξ: configuration not given here. Phe(4-COOH) = N[C@@H](Cc1ccc(C(=O)O)cc1)C(=O)O; Phe(3,5-F2) = N[C@@H](Cc1cc(F)cc(F)c1)C(=O)O; Bip = N[C@@H](Cc1ccc(-c2ccccc2)cc1)C(=O)O; Phe(4-Cl) = N[C@@H](Cc1ccc(Cl)cc1)C(=O)O; Phe(4-F) = N[C@@H](Cc1ccc(F)cc1)C(=O)O; Gly(cPent) = N[C@H](C(=O)O)C1CCCC1; 4Pal = N[C@@H](Cc1ccncc1)C(=O)O; Cha = N[C@@H](CC1CCCCC1)C(=O)O; Cit = NC(=O)NCCC[C@H](N)C(=O)O; Thr(3ξ) = CC(O)[C@H](N)C(=O)O; Carboxymethyl = O=C(O)C*; Orn = NCCC[C@H](N)C(=O)O; Dab = NCC[C@H](N)C(=O)O; Abu = CC[C@H](N)C(=O)O; Dap = NC[C@H](N)C(=O)O

T1 sequence (Q15116 25-288): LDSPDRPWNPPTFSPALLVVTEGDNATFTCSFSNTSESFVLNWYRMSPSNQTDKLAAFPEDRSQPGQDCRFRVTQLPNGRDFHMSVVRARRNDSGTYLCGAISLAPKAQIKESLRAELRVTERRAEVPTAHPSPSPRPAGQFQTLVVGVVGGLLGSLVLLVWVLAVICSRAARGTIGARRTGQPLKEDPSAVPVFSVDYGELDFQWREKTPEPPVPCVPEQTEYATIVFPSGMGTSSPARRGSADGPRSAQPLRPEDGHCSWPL

The term IC50 denotes the concentration at which inhibition is half-maximal. `CC(C)C[C@H]1NC(=O)[C@H](CCCN)NC(=O)[C@H](CCCNC(N)=O)NC(=O)[C@H](Cc2ccc(-c3ccccc3)cc2)NC(=O)[C@H](C(C)C)NC(=O)[C@H](Cc2c[nH]c3ccccc23)NC(=O)[C@H](CC(=O)O)NC(=O)[C@H](Cc2ccc(OCC(=O)O)cc2)NC(=O)[C@H](CN)NC(=O)CSC[C@@H](C(=O)N[C@@H](C)C(N)=O)NC(=O)[C@H]([C@@H](C)O)NC(=O)[C@H](C(C)C)NC(=O)[C@H](Cc2ccc(F)cc2)NC(=O)[C@H](CCN)NC1=O` [Compound 1367] ({CH2CO}-[Dap]Y(Carboxymethyl)DWV[Bip][Cit][Orn][dL][Dab][Phe(4-F)]VTCA-NH2; thioether N-14): the IC50 under setting [1] was determined as 21.7 nM. Regarding `CC[C@@H]1NC(=O)[C@H](Cc2c[nH]c3ccccc23)NC(=O)[C@H](CC(=O)O)NC(=O)[C@H](Cc2ccc(OCC(=O)O)cc2)NC(=O)[C@H](CN)NC(=O)CSC[C@@H](C(=O)N[C@@H](C)C(N)=O)NC(=O)[C@H]([C@@H](C)O)NC(=O)[C@H](C(C)C)NC(=O)[C@H](CC2CCCCC2)NC(=O)[C@H](CCN)NC(=O)[C@@H](CC(C)C)NC(=O)[C@H](CCCN)NC(=O)[C@H](C(C)C)NC(=O)[C@H](Cc2ccc(-c3ccccc3)cc2)NC1=O` [Compound 1729] ({CH2CO}-[Dap]Y(Carboxymethyl)DW[Abu][Bip]V[Orn][dL][Dab][Cha]VTCA-NH2; thioether N-14), the IC50 (Jurkat HPD1_PDL1 IC50, Jurkat-PD-1 cells) came out at 16.9 nM. Take `CC(C)C[C@H]1NC(=O)[C@H](CCCN)NC(=O)[C@H](C(C)C)NC(=O)[C@H](Cc2ccc(-c3ccccc3)cc2)NC(=O)[C@H](C(C)C)NC(=O)[C@H](Cc2c[nH]c3ccccc23)NC(=O)[C@H](CC(=O)O)NC(=O)[C@H](Cc2ccc(OCC(=O)O)cc2)NC(=O)[C@H](CN)NC(=O)CSC[C@@H](C(=O)N[C@@H](C)C(N)=O)NC(=O)[C@H](CCCNC(=N)N)NC(=O)[C@H](C(C)C)NC(=O)[C@H](CC2CCCCC2)NC(=O)[C@H](CCN)NC1=O` [Compound 1747] ({CH2CO}-[Dap]Y(Carboxymethyl)DWV[Bip]V[Orn][dL][Dab][Cha]VRCA-NH2; thioether N-14): the half-maximal inhibitory concentration (IC50) under setting [1] came out at 6.4 nM. In the case of `Cc1cccc(C[C@@H]2NC(=O)[C@H](CC(=O)O)NC(=O)[C@H](Cc3ccc(OCC(=O)O)cc3)NC(=O)[C@H](Cc3ccncc3)NC(=O)CSC[C@@H](C(=O)N[C@@H](C)C(N)=O)NC(=O)[C@H]([C@@H](C)O)NC(=O)[C@H](C(C)C)NC(=O)[C@H](CC3CCCCC3)NC(=O)[C@H](CCN)NC(=O)[C@@H](CC(C)C)NC(=O)[C@H](CCCN)NC(=O)[C@H](CCCNC(N)=O)NC(=O)[C@H](Cc3ccc(-c4ccccc4)cc3)NC(=O)[C@H](C(C)C)NC2=O)c1` [Compound 1196], the concentration for half-maximal inhibition (IC50) under setting [1] turned out to be 8.2 nM. On the same count and under the same terms, the value for `CC(C)C[C@H]1NC(=O)[C@H](CCCN)NC(=O)[C@H](CCC(=O)O)NC(=O)[C@H](Cc2ccc(-c3ccccc3)cc2)NC(=O)[C@H](C(C)C)NC(=O)[C@H](Cc2c[nH]c3ccccc23)NC(=O)[C@H](CC(=O)O)NC(=O)[C@H](Cc2ccc(OCC(=O)O)cc2)NC(=O)[C@H](CN)NC(=O)CSC[C@@H](C(=O)N[C@@H](C)C(N)=O)NC(=O)[C@H]([C@@H](C)O)NC(=O)[C@H](C(C)C)NC(=O)[C@H](Cc2ccc(Cl)cc2)NC(=O)[C@H](CCN)NC1=O` [Compound 1472] ({CH2CO}-[Dap]Y(Carboxymethyl)DWV[Bip]E[Orn][dL][Dab][Phe(4-Cl)]VTCA-NH2; thioether N-14) was 128 nM; that for `CC(C)C[C@H]1NC(=O)[C@H](CCCN)NC(=O)[C@H](C(C)C)NC(=O)[C@H](Cc2ccc(-c3ccccc3)cc2)NC(=O)[C@H](C(C)C)NC(=O)[C@H](Cc2c[nH]c3ccccc23)NC(=O)[C@H](CC(=O)O)NC(=O)[C@H](Cc2ccc(OCC(=O)O)cc2)NC(=O)[C@H](C(C)O)NC(=O)CSC[C@@H](C(=O)N[C@H](CC(N)=O)C(N)=O)NC(=O)[C@H](CO)NC(=O)[C@H](C(C)C)NC(=O)[C@H](CC2CCCCC2)NC(=O)[C@H](CCN)NC1=O` (stereo partly drawn) [Compound 2565] ({CH2CO}-[Thr(3ξ)]Y(Carboxymethyl)DWV[Bip]V[Orn][dL][Dab][Cha]VSC[dN]-NH2; thioether N-14) was 3.3 nM. Still for that read-out and setting: the value for `CC(C)C[C@H]1NC(=O)[C@H](CCCN)NC(=O)[C@H](CCC(=O)O)NC(=O)[C@H](Cc2ccc(-c3ccccc3)cc2)NC(=O)[C@H](C(C)C)NC(=O)[C@H](Cc2c[nH]c3ccccc23)NC(=O)[C@H](CC(=O)O)NC(=O)[C@H](Cc2ccc(OCC(=O)O)cc2)NC(=O)[C@H](CN)NC(=O)CSC[C@@H](C(=O)N[C@@H](C)C(N)=O)NC(=O)[C@H]([C@@H](C)O)NC(=O)[C@H](C(C)C)NC(=O)[C@H](Cc2cc(F)cc(F)c2)NC(=O)[C@H](CCN)NC1=O` [Compound 1476] ({CH2CO}-[Dap]Y(Carboxymethyl)DWV[Bip]E[Orn][dL][Dab][Phe(3,5-F2)]VTCA-NH2; thioether N-14) was 33 nM. The same measure, in the same setting: the value for `CC(C)C[C@H]1NC(=O)[C@H](CCCN)NC(=O)[C@H](CCCN)NC(=O)[C@H](Cc2ccc(-c3ccccc3)cc2)NC(=O)[C@H](C(C)C)NC(=O)[C@H](Cc2c[nH]c3ccccc23)NC(=O)[C@H](CC(=O)O)NC(=O)[C@H](Cc2ccncc2)NC(=O)[C@H](CN)NC(=O)CSC[C@@H](C(=O)N[C@@H](C)C(N)=O)NC(=O)[C@H]([C@@H](C)O)NC(=O)[C@H](C(C)C)NC(=O)[C@H](CC2CCCCC2)NC(=O)[C@H](CCN)NC1=O` [Compound 1386] ({CH2CO}-[Dap][4Pal]DWV[Bip][Orn][Orn][dL][Dab][Cha]VTCA-NH2; thioether N-14) was 10.8 nM; that for `CCCC[C@H]1NC(=O)[C@H](CCCN)NC(=O)[C@H](C(C)C)NC(=O)[C@H](Cc2ccc(-c3ccccc3)cc2)NC(=O)[C@H](C(C)C)NC(=O)[C@H](Cc2c[nH]c3ccccc23)NC(=O)[C@H](CC(=O)O)NC(=O)[C@H](Cc2ccncc2)NC(=O)[C@H](CN)NC(=O)CSC[C@@H](C(=O)N[C@@H](C)C(N)=O)NC(=O)[C@H]([C@@H](C)O)NC(=O)[C@H](C(C)C)NC(=O)[C@H](CC2CCCCC2)NC(=O)[C@H](CCN)NC1=O` [Compound 1695] was 34.4 nM; that for `CC(C)C[C@H]1NC(=O)[C@H](CCCN)NC(=O)[C@H](CCCNC(N)=O)NC(=O)[C@H](Cc2ccc(-c3ccccc3)cc2)NC(=O)[C@H](C(C)C)NC(=O)[C@H](Cc2c[nH]c3ccccc23)NC(=O)[C@H](CC(=O)O)NC(=O)[C@H](Cc2ccc(O)cc2)NC(=O)[C@H](Cc2ccccc2)NC(=O)CSC[C@@H](C(=O)N[C@@H](C)C(N)=O)NC(=O)[C@H]([C@@H](C)O)NC(=O)[C@H](C(C)C)NC(=O)[C@H](CC2CCCCC2)NC(=O)[C@H](CCCNC(=N)N)NC1=O` [Compound 1156] ({CH2CO}-FYDWV[Bip][Cit][Orn][dL]R[Cha]VTCA-NH2; thioether N-14) was 20.7 nM. Consider `CC(C)[C@@H]1NC(=O)[C@H](Cc2c[nH]c3ccccc23)NC(=O)[C@H](CC(=O)O)NC(=O)[C@H](Cc2ccc(C(=O)O)cc2)NC(=O)[C@H](Cc2ccc(OCC(=O)O)cc2)NC(=O)CSC[C@@H](C(=O)N[C@@H](C)C(N)=O)NC(=O)[C@H]([C@@H](C)O)NC(=O)[C@H](C(C)C)NC(=O)[C@H](CC2CCCCC2)NC(=O)[C@H](CCN)NC(=O)[C@@H](Cc2ccccc2)NC(=O)[C@H](CCCN)NC(=O)[C@H](CCC(=O)O)NC(=O)[C@H](Cc2ccc(-c3ccccc3)cc2)NC1=O` [Compound 1438] ({CH2CO}-Y(Carboxymethyl)[Phe(4-COOH)]DWV[Bip]E[Orn][dF][Dab][Cha]VTCA-NH2; thioether N-14), for which the IC50 under setting [1] was found to be 30.4 nM. As for `CC(C)C[C@H]1NC(=O)[C@H](CCCN)NC(=O)[C@H](CCCNC(N)=O)NC(=O)[C@H](Cc2ccc(-c3ccccc3)cc2)NC(=O)[C@H](C(C)C)NC(=O)[C@H](Cc2c[nH]c3ccccc23)NC(=O)[C@H](CC(=O)O)NC(=O)[C@H](Cc2c[nH]c3ccccc23)NC(=O)[C@H](CN)NC(=O)CSC[C@@H](C(=O)N[C@@H](C)C(N)=O)NC(=O)[C@H]([C@@H](C)O)NC(=O)[C@H](C(C)C)NC(=O)[C@H](CC2CCCCC2)NC(=O)[C@H](CCN)NC1=O` [Compound 2122] ({CH2CO}-[Dap]WDWV[Bip][Cit][Orn][dL][Dab][Cha]VTCA-NH2; thioether N-14), the IC50 under setting [1] amounted to 31.3 nM. For the compound `CC(C)C[C@H]1NC(=O)[C@H](CCCN)NC(=O)[C@H](CCCNC(N)=O)NC(=O)[C@H](Cc2ccc(-c3ccccc3)cc2)NC(=O)[C@H](C2CCCC2)NC(=O)[C@H](Cc2c[nH]c3ccccc23)NC(=O)[C@H](CC(=O)O)NC(=O)[C@H](Cc2ccc(OCC(=O)O)cc2)NC(=O)[C@H](CN)NC(=O)CSC[C@@H](C(=O)N[C@@H](C)C(N)=O)NC(=O)[C@H]([C@@H](C)O)NC(=O)[C@H](C(C)C)NC(=O)[C@H](CC2CCCCC2)NC(=O)[C@H](CCN)NC1=O` [Compound 1368] ({CH2CO}-[Dap]Y(Carboxymethyl)DW[Gly(cPent)][Bip][Cit][Orn][dL][Dab][Cha]VTCA-NH2; thioether N-14), under setting [1], the concentration for half-maximal inhibition (IC50) was found to be 7.1 nM. In the case of `CCCC[C@H]1NC(=O)[C@H](CCCN)NC(=O)[C@H]([C@@H](C)CC)NC(=O)[C@H](Cc2ccc(-c3ccccc3)cc2)NC(=O)[C@H](C(C)C)NC(=O)[C@H](Cc2c[nH]c3ccccc23)NC(=O)[C@H](CC(=O)O)NC(=O)[C@H](Cc2ccc(OCC(=O)O)cc2)NC(=O)[C@H](Cc2ccc(OCC(=O)O)cc2)NC(=O)CSC[C@@H](C(=O)N[C@@H](C)C(N)=O)NC(=O)[C@H]([C@@H](C)O)NC(=O)[C@H](C(C)C)NC(=O)[C@H](CC2CCCCC2)NC(=O)[C@H](CCN)NC1=O` [Compound 1706], the IC50 under setting [1] came out at 11.5 nM.
